We go through 20 compounds from PubChem BioAssay AID330 (DTP/NCI, 2004).

The test system of the assay is P388 leukemia ip, CD2F1 mice, survival T/C. Description: NCI In Vivo Anticancer Drug Screen. Data for tumor model P388 Leukemia (intraperitoneal) in CD2F1 (CDF1) mice. The settings on record: endpoint: median survival time, higher = longer survival. A digest of the protocol:
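Mice carrying the transplanted tumor received test compound or vehicle. Survival was recorded in each group, and the value is the treated-group measurement divided by that of the vehicle-treated control group.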

[1] abbreviates: dose: 12.5 mg/kg/injection, schedule: Q01DX009 (ip), vehicle: saline.
Where [2] appears, read: dose: 25.0 mg/kg/injection, schedule: Q01DX009 (ip), vehicle: saline.
[3] abbreviates: dose: 50.0 mg/kg/injection, schedule: Q01DX009 (ip), vehicle: saline.
Setting [4] is: dose: 12.5 mg/kg/injection, schedule: Q01DX005 (ip), vehicle: Klucel (hydroxypropylcellulose) (HPC).
Where [5] appears, read: dose: 25.0 mg/kg/injection, schedule: Q01DX005 (ip), vehicle: Klucel (hydroxypropylcellulose) (HPC).
The mark [6] stands for this setting: dose: 50.0 mg/kg/injection, schedule: Q01DX005 (ip), vehicle: Klucel (hydroxypropylcellulose) (HPC).
Setting [7] is: dose: 100.0 mg/kg/injection, schedule: Q01DX005 (ip), vehicle: Klucel (hydroxypropylcellulose) (HPC).
The mark [8] stands for this setting: dose: 200.0 mg/kg/injection, schedule: Q01DX005 (ip), vehicle: Klucel (hydroxypropylcellulose) (HPC).
The mark [9] stands for this setting: dose: 60.0 mg/kg/injection, schedule: Q01DX005 (ip), vehicle: saline.
Setting [10] is: dose: 120.0 mg/kg/injection, schedule: Q01DX005 (ip), vehicle: saline.
Setting [11] is: dose: 240.0 mg/kg/injection, schedule: Q01DX005 (ip), vehicle: saline.
The mark [12] stands for this setting: dose: 30.0 mg/kg/injection, schedule: Q01DX005 (ip), vehicle: saline with Tween-80.
[13] abbreviates: dose: 50.0 mg/kg/injection, schedule: Q01DX005 (ip), vehicle: saline with Tween-80.
[14] abbreviates: dose: 100.0 mg/kg/injection, schedule: Q01DX005 (ip), vehicle: saline with Tween-80.
The mark [15] stands for this setting: dose: 200.0 mg/kg/injection, schedule: Q01DX005 (ip), vehicle: saline with Tween-80.
The mark [16] stands for this setting: dose: 100.0 mg/kg/injection, schedule: Q01DX009 (ip), vehicle: saline.

“And” between values parts separate entries of the source, which are not always exact repeats. Equal values may be shown once. Inconclusive results and toxic doses are left out. Peptide text beside a SMILES is read from it. * marks the point of attachment. Trt = c1ccc(C(c2ccccc2)(c2ccccc2)*)cc1; Cbz = O=C(OCc1ccccc1)*; Bn = c1ccc(C*)cc1; βAla = NCCC(=O)O

Turning to `NCC=C1C2CC3CC(C2)CC1C3`, the T/C (dose: 6.25 mg/kg/injection, schedule: Q01DX009 (ip), vehicle: saline) is 105 % of control and 107 % of control and 120 % of control; the T/C under setting [1] is 107 % of control (2×) and 117 % of control; the T/C under setting [2] was 111 % of control and 94 % of control; the T/C under setting [3] is 103 % of control.

Turning to `COC(=O)C(CSC(c1ccccc1)(c1ccccc1)c1ccccc1)NC(=O)C(CSCc1ccccc1)NC(=O)CCNC(=O)OCc1ccccc1` (stereo not given) ({Cbz-βAla}-Cys(Bn)-Cys(Trt)-OMe; configuration not given here), the T/C reads like this: (dose: 4.0 mg/kg/injection, schedule: Q01DX009 (ip), vehicle: water) 102 % of control; (dose: 8.0 mg/kg/injection, schedule: Q01DX009 (ip), vehicle: water) 100 % of control; under setting [4], 99 % of control; (dose: 16.0 mg/kg/injection, schedule: Q01DX009 (ip), vehicle: water) 99 % of control; under setting [5], 102 % of control; (dose: 32.0 mg/kg/injection, schedule: Q01DX009 (ip), vehicle: water) 99 % of control. For the same compound, the T/C is 102 % of control under setting [6]; 89 % of control (dose: 64.0 mg/kg/injection, schedule: Q01DX009 (ip), vehicle: water); 102 % of control under setting [7]; 86 % of control (dose: 128.0 mg/kg/injection, schedule: Q01DX009 (ip), vehicle: water); 103 % of control under setting [8].

For the compound `C=C1CCC2C(C)(CO)C(O)CCC2(C)C1C/C=C1\C(=O)OCC1O` (stereo not given), the T/C by setting is: under setting [5], 109 % of control; under setting [6], 108 % of control; under setting [7], 114 % of control; under setting [8], 117 % of control.

For the compound `COC(=O)C1=NC(=S)N=C(C(=O)OC)C1(C)C(=O)c1ccccc1`, the T/C runs as follows: under setting [9], 95 % of control; under setting [10], 95 % of control; under setting [11], 118 % of control.

Turning to `CN(C)c1ccc([N+]([O-])=Nc2ccc3ccccc3c2)cc1`, the T/C was 96 % of control under setting [12]; 87 % of control and 96 % of control (dose: 60.0 mg/kg/injection, schedule: Q01DX005 (ip), vehicle: saline with Tween-80); 89 % of control (dose: 120.0 mg/kg/injection, schedule: Q01DX005 (ip), vehicle: saline with Tween-80); 90 % of control (dose: 240.0 mg/kg/injection, schedule: Q01DX005 (ip), vehicle: saline with Tween-80).

As for `N#Cc1c(N)[nH]c2ccc(Sc3ccccc3)cc12`, the T/C (dose: 7.5 mg/kg/injection, schedule: Q01DX005 (ip), vehicle: saline with Tween-80) is 97 % of control; the T/C (dose: 15.0 mg/kg/injection, schedule: Q01DX005 (ip), vehicle: saline with Tween-80) was 99 % of control; the T/C under setting [12] is 104 % of control.

Regarding `COc1cccc(/C=C2/C(=O)N(c3ccc([N+](=O)[O-])cc3)N=C2C)c1`, the T/C was 97 % of control (dose: 30.0 mg/kg/injection, schedule: Q01DX005 (ip), vehicle: Klucel (hydroxypropylcellulose) (HPC)); 88 % of control (dose: 60.0 mg/kg/injection, schedule: Q01DX005 (ip), vehicle: Klucel (hydroxypropylcellulose) (HPC)); 98 % of control (dose: 120.0 mg/kg/injection, schedule: Q01DX005 (ip), vehicle: Klucel (hydroxypropylcellulose) (HPC)); 93 % of control (dose: 240.0 mg/kg/injection, schedule: Q01DX005 (ip), vehicle: Klucel (hydroxypropylcellulose) (HPC)).

As to `CSc1ncnc2c1cnn2C1OC(CO)C(O)C1O` (stereo not given), the T/C reads like this: (dose: 6.25 mg/kg/injection, schedule: Q01DX009 (ip), vehicle: saline with Tween-80) 104 % of control; (dose: 12.5 mg/kg/injection, schedule: Q01DX009 (ip), vehicle: saline with Tween-80) 98 % of control; (dose: 25.0 mg/kg/injection, schedule: Q01DX009 (ip), vehicle: saline with Tween-80) 116 % of control; (dose: 50.0 mg/kg/injection, schedule: Q01DX009 (ip), vehicle: saline with Tween-80) 100 % of control.

Take `COC(C(N)=O)(c1ccccc1)C(F)(F)F` (stereo not given): the T/C (dose: 100.0 mg/kg/injection, schedule: Q01DX009 (ip), vehicle: saline with Tween-80) is 90 % of control; the T/C (dose: 200.0 mg/kg/injection, schedule: Q01DX009 (ip), vehicle: saline with Tween-80) was 100 % of control; the T/C (dose: 400.0 mg/kg/injection, schedule: Q01DX009 (ip), vehicle: saline with Tween-80) was 90 % of control.

Consider `CN(C)CCOC1=Nc2ccccc2O/C1=C/c1ccccc1`, for which the T/C is, setting by setting: (dose: 50.0 mg/kg/injection, schedule: Q01DX009 (ip), vehicle: Klucel (hydroxypropylcellulose) (HPC)) 100 % of control; (dose: 100.0 mg/kg/injection, schedule: Q01DX009 (ip), vehicle: Klucel (hydroxypropylcellulose) (HPC)) 111 % of control.

As for `COC(=O)C12CCC(C(=O)OC)(CC1)n1c(=O)n(-c3ccccc3)c(=O)n12`, the T/C is 102 % of control under setting [13], 102 % of control under setting [14] and 102 % of control under setting [15].

Take `COC(=O)CC1(O)C(=O)OCc2c1cc1n(c2=O)Cc2c-1nc1ccccc1c2OC` (stereo not given): the T/C under setting [1] was 167 % of control; the T/C under setting [3] was 194 % of control; the T/C under setting [16] was 150 % of control and 184 % of control; the T/C (dose: 100.0 mg/kg/injection, schedule: Q01DX009 (ip), vehicle: suspension in saline) is 86 % of control.

Take `COc1cc(C2c3cc(OC(C)=O)c(OC)cc3CC3C(=O)OCC32)ccc1OC(C)=O` (stereo not given): the T/C runs as follows: under setting [6], 95 % of control; under setting [7], 93 % of control; under setting [8], 90 % of control.

Regarding `CCN(CC)CCO/N=c1\nc(-c2ccccc2)c2cc(Cl)ccc2s1`, the T/C under setting [3] was 100 % of control; the T/C under setting [16] was 103 % of control; the T/C (dose: 200.0 mg/kg/injection, schedule: Q01DX009 (ip), vehicle: saline) was 104 % of control.

`CC1C2CCC3C4CC=C5CC(N(C)C)CCC5(C)C4CCC32CN1C` (stereo not given): the T/C reads like this: under setting [4], 105 % of control; (dose: 12.5 mg/kg/injection, schedule: Q01DX005 (ip), vehicle: saline) 94 % of control; under setting [5], 105 % of control; (dose: 25.0 mg/kg/injection, schedule: Q01DX005 (ip), vehicle: saline) 94 % of control; under setting [2], 105 % of control; under setting [6], 103 % of control and 113 % of control. Moreover, the T/C was 106 % of control and 107 % of control (dose: 50.0 mg/kg/injection, schedule: Q01DX005 (ip), vehicle: saline); 88 % of control under setting [3].

As to `COC1=CC(=O)C(C/C=C/c2ccccc2)=CC1=O`, the T/C by setting is: (dose: 2.5 mg/kg/injection, schedule: Q01DX009 (ip), vehicle: saline with Tween-80) 103 % of control; (dose: 5.0 mg/kg/injection, schedule: Q01DX009 (ip), vehicle: saline with Tween-80) 105 % of control; (dose: 10.0 mg/kg/injection, schedule: Q01DX009 (ip), vehicle: saline with Tween-80) 105 % of control.

Regarding `CC(=O)OC1CC2C(=[N+]=[N-])C(=O)C1(C)C2(C)C` (stereo not given), the T/C runs as follows: under setting [13], 108 % of control; under setting [14], 107 % of control; under setting [15], 108 % of control.

Turning to `c1ccc(-c2ccc[n+](C[n+]3cccc(-c4ccccn4)c3)c2)nc1`, the T/C by setting is: under setting [9], 109 % of control; under setting [10], 104 % of control; under setting [11], 106 % of control.

Regarding `COC(=O)C1CC2c3cc4c(cc3CCN2CC1C(=O)OC)OCO4` (stereo not given), the T/C was 101 % of control (dose: 0.63 mg/kg/injection, schedule: Q01DX009 (ip), vehicle: distilled water + Tween-80); 99 % of control (dose: 1.25 mg/kg/injection, schedule: Q01DX009 (ip), vehicle: distilled water + Tween-80); 106 % of control (dose: 2.5 mg/kg/injection, schedule: Q01DX009 (ip), vehicle: distilled water + Tween-80); 97 % of control (dose: 5.0 mg/kg/injection, schedule: Q01DX009 (ip), vehicle: distilled water + Tween-80); 108 % of control (dose: 10.0 mg/kg/injection, schedule: Q01DX009 (ip), vehicle: distilled water + Tween-80); 106 % of control (dose: 20.0 mg/kg/injection, schedule: Q01DX009 (ip), vehicle: distilled water + Tween-80).

Turning to `CN(C)CCC(=O)c1ccc(Cl)cc1Cl`, the T/C is, setting by setting: under setting [3], 110 % of control; under setting [16], 100 % of control.
